Where “and” joins values, the source holds several entries; their conditions need not be identical. Equal values may be shown once. Inconclusive results and toxic doses are left out. No stated cut-off is given here; in the data, active means T/C of 150% or more; inactive means T/C below 125%.
Tested on: L1210 leukemia ip in BDF1 mice, survival T/C
Test: NCI In Vivo Anticancer Drug Screen. Data for tumor model L1210 Leukemia (intraperitoneal) in B6D2F1 (BDF1) mice
Conditions: endpoint: mean survival time, higher = longer survival
Procedure, shortened: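 Transplantable tumor model; survival measured in treated vs vehicle control mice. Value = treated/control.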

[1] = dose: 100.0 mg/kg/injection, schedule: Q01DX001 (ip), vehicle: carboxymethylcellulose (CMC)
[2] = dose: 100.0 mg/kg/injection, schedule: Q01DX009 (ip), vehicle: Klucel (hydroxypropylcellulose) (HPC)
[3] = dose: 200.0 mg/kg/injection, schedule: Q01DX001 (ip), vehicle: carboxymethylcellulose (CMC)
[4] = dose: 200.0 mg/kg/injection, schedule: Q01DX009 (ip), vehicle: Klucel (hydroxypropylcellulose) (HPC)
[5] = dose: 100.0 mg/kg/injection, schedule: Q01DX001 (ip), vehicle: Klucel (hydroxypropylcellulose) (HPC)
[6] = dose: 200.0 mg/kg/injection, schedule: Q01DX001 (ip), vehicle: Klucel (hydroxypropylcellulose) (HPC)
[7] = dose: 100.0 mg/kg/injection, schedule: Q04DX003 (ip), vehicle: Klucel (hydroxypropylcellulose) (HPC)
[8] = dose: 200.0 mg/kg/injection, schedule: Q04DX003 (ip), vehicle: Klucel (hydroxypropylcellulose) (HPC)
[9] = dose: 400.0 mg/kg/injection, schedule: Q01DX009 (ip), vehicle: Klucel (hydroxypropylcellulose) (HPC)
[10] = dose: 400.0 mg/kg/injection, schedule: Q04DX003 (ip), vehicle: Klucel (hydroxypropylcellulose) (HPC)
[11] = dose: 100.0 mg/kg/injection, schedule: Q04DX003 (ip), vehicle: saline with Tween-80
[12] = dose: 200.0 mg/kg/injection, schedule: Q04DX003 (ip), vehicle: saline with Tween-80
[13] = dose: 400.0 mg/kg/injection, schedule: Q04DX003 (ip), vehicle: saline with Tween-80

Measured: T/C

C[C@]12CC[C@H]3[C@@H](CC[C@]4(O)C[C@@H](O)CC[C@]34C=O)[C@@]1(O)CC[C@@H]2C1=CC(=O)OC1
inactive: dose: 12.5 mg/kg/injection, schedule: Q01DX009 (ip), vehicle: Klucel (hydroxypropylcellulose) (HPC) 102 % of control | dose: 25.0 mg/kg/injection, schedule: Q01DX009 (ip), vehicle: Klucel (hydroxypropylcellulose) (HPC) 104 % of control | dose: 50.0 mg/kg/injection, schedule: Q01DX001 (ip), vehicle: carboxymethylcellulose (CMC) 98 % of control | dose: 50.0 mg/kg/injection, schedule: Q01DX009 (ip), vehicle: Klucel (hydroxypropylcellulose) (HPC) 102 % of control | dose: 50.0 mg/kg/injection, schedule: Q01DX009 (ip), vehicle: carboxymethylcellulose (CMC) 103 % of control | dose: 75.0 mg/kg/injection, schedule: Q04DX003 (ip), vehicle: Klucel (hydroxypropylcellulose) (HPC) 102 % of control | [1] 96 % of control | [2] 109 % of control | dose: 100.0 mg/kg/injection, schedule: Q01DX009 (ip), vehicle: carboxymethylcellulose (CMC) 108 % of control | dose: 150.0 mg/kg/injection, schedule: Q04DX003 (ip), vehicle: Klucel (hydroxypropylcellulose) (HPC) 98 % of control | [3] 93 % of control | [4] 112 % of control | dose: 300.0 mg/kg/injection, schedule: Q04DX003 (ip), vehicle: Klucel (hydroxypropylcellulose) (HPC) 101 % of control

Cc1nc2sc3c(c2c(=S)[nH]1)CCCC3
inactive: dose: 100.0 mg/kg/injection, schedule: Q01DX001 (ip), vehicle: saline sonified 86 % of control | dose: 200.0 mg/kg/injection, schedule: Q01DX001 (ip), vehicle: saline sonified 89 % of control | dose: 400.0 mg/kg/injection, schedule: Q01DX001 (ip), vehicle: saline sonified 91 % of control

CCOC(CN(C(C)=O)C1(c2ccc(OC)c(OC)c2)C(=O)c2ccccc2C1=O)OCC
inactive: [5] 110 % of control | [6] 105 % of control | dose: 400.0 mg/kg/injection, schedule: Q01DX001 (ip), vehicle: Klucel (hydroxypropylcellulose) (HPC) 98 % of control

CCCCNC(=O)Nc1ccc(C)c(Cl)c1
inactive: [2] 96 % of control | [7] 94 % of control | [4] 94 % of control | [8] 94 % of control | [9] 89 % of control | [10] 100 % of control

COc1ccc2c(c1)CCC1C2CCC2C(O)CCCC21 (stereo not given)
inactive: dose: 50.0 mg/kg/injection, schedule: Q01DX001 (ip), vehicle: Klucel (hydroxypropylcellulose) (HPC) 95 % of control | [5] 93 % of control | [6] 87 % of control

O=C(NCO)NC1NC(=O)NC1=O (stereo not given)
inactive: [11] 101 % of control | [12] 101 % of control | [13] 108 % of control

Cc1cc(C)c(C(=O)c2no[n+]([O-])c2C(=O)c2c(C)cc(C)c(Br)c2C)c(C)c1Br
inactive: [12] 87 % of control

Cc1cc2oc(/C=N/Nc3ccc([N+](=O)[O-])cc3[N+](=O)[O-])c(C)c2cc1C
inactive: [2] 94 % of control | [4] 94 % of control | [9] 89 % of control

NC(=O)c1ccccc1NC(=O)Nc1cccc(F)c1
inactive: dose: 25.0 mg/kg/injection, schedule: Q01DX009 (ip), vehicle: saline with Tween-80 89 % of control | dose: 50.0 mg/kg/injection, schedule: Q01DX009 (ip), vehicle: saline with Tween-80 95 % of control | dose: 100.0 mg/kg/injection, schedule: Q01DX009 (ip), vehicle: saline with Tween-80 104 % of control | dose: 200.0 mg/kg/injection, schedule: Q01DX009 (ip), vehicle: saline with Tween-80 90 % of control | dose: 400.0 mg/kg/injection, schedule: Q01DX009 (ip), vehicle: saline with Tween-80 96 % of control

Cc1nonc1C
inactive: dose: 31.2 mg/kg/injection, schedule: Q01DX Z (ip), vehicle: other 100 % of control | dose: 62.5 mg/kg/injection, schedule: Q01DX Z (ip), vehicle: other 90 % of control | [7] 103 % of control | dose: 125.0 mg/kg/injection, schedule: Q01DX Z (ip), vehicle: other 88 % of control | [8] 98 % of control | dose: 250.0 mg/kg/injection, schedule: Q01DX Z (ip), vehicle: other 90 % of control | [10] 106 % of control

OC(c1ccccc1)(c1ccccc1)C(O)(c1ccccc1)c1ccccc1
inactive: dose: 12.5 mg/kg/injection, schedule: Q04DX002 (ip), vehicle: Klucel (hydroxypropylcellulose) (HPC) 94 % of control | dose: 25.0 mg/kg/injection, schedule: Q04DX002 (ip), vehicle: Klucel (hydroxypropylcellulose) (HPC) 97 % of control and 122 % of control | dose: 50.0 mg/kg/injection, schedule: Q04DX002 (ip), vehicle: Klucel (hydroxypropylcellulose) (HPC) 115 % of control and 91 % of control | dose: 100.0 mg/kg/injection, schedule: Q04DX002 (ip), vehicle: Klucel (hydroxypropylcellulose) (HPC) 97 % of control | dose: 100.0 mg/kg/injection, schedule: Q04DX002 (ip), vehicle: gum acacia 92 % of control | dose: 100.0 mg/kg/injection, schedule: Q04DX002 (ip), vehicle: saline with Tween-80 102 % of control | [7] 96 % of control | dose: 200.0 mg/kg/injection, schedule: Q04DX002 (ip), vehicle: gum acacia 89 % of control | dose: 200.0 mg/kg/injection, schedule: Q04DX002 (ip), vehicle: saline with Tween-80 99 % of control | [8] 88 % of control | dose: 400.0 mg/kg/injection, schedule: Q04DX002 (ip), vehicle: gum acacia 95 % of control | dose: 400.0 mg/kg/injection, schedule: Q04DX002 (ip), vehicle: saline with Tween-80 99 % of control | [10] 95 % of control

COc1cc(CC(=O)C(=O)O)oc(=O)c1
inactive: [11] 102 % of control | [12] 95 % of control | [13] 98 % of control

COc1ccc2c(c1OC)CN(C)CCc1cc3c(cc1C(=O)C2)OCO3
inactive: [1] 96 % of control | [3] 96 % of control | dose: 400.0 mg/kg/injection, schedule: Q01DX001 (ip), vehicle: carboxymethylcellulose (CMC) 100 % of control

NC(CO)C(=O)O.[Cl-].[Cl-].[Cl-].[Cl-].[Pt+2] (stereo not given)
inactive: dose: 12.5 mg/kg/injection, schedule: Q01DX009 (ip), vehicle: saline 114 % of control and 117 % of control | dose: 25.0 mg/kg/injection, schedule: Q01DX009 (ip), vehicle: saline 122 % of control | dose: 50.0 mg/kg/injection, schedule: Q01DX009 (ip), vehicle: saline 119 % of control

CCOc1c(Br)cc(N=Cc2ccc(N(CCCl)CCCl)c(OC)c2)cc1Br
inactive: dose: 44.0 mg/kg/injection, schedule: Q01DX001 (ip), vehicle: carboxymethylcellulose (CMC) 120 % of control | dose: 150.0 mg/kg/injection, schedule: Q01DX001 (ip), vehicle: carboxymethylcellulose (CMC) 123 % of control | [3] 104 % of control

CC(=O)Nc1ccc(S(=O)(=O)NC(C(=O)O)C(=O)O)cc1
inactive: dose: 100.0 mg/kg/injection, schedule: Q01DX001 (ip), vehicle: saline 100 % of control | dose: 200.0 mg/kg/injection, schedule: Q01DX001 (ip), vehicle: saline 103 % of control | dose: 400.0 mg/kg/injection, schedule: Q01DX001 (ip), vehicle: saline 103 % of control

— PubChem BioAssay AID248 (DTP/NCI, 2004)
